Values of other authors in US20090062907A1, “Self-expanding valve for the venous system” (priority 2007, published 2009).

solubility in alcohol (alcohol): soluble | solubility in water (water): sparingly soluble
Compound: C[C@H](CCC(=O)O)[C@H]1CC[C@H]2[C@@H]3CC[C@@H]4C[C@H](O)CC[C@]4(C)[C@H]3C[C@H](O)[C@]12C [Deoxycholic acid]
